Results as given in ChEMBL document CHEMBL1151539, “The synthesis and evaluation of diacylglycerol analogues as potential second-messenger antagonists” (Bioorg Med Chem Lett, 1992).

Experiments:
MR4 [1] = test: Concentration required for inhibiting the growth of MR4 cells; 0.05-0.1; format: functional, Mus musculus
Protein kinase C (PKC) = test: Inhibition of protein kinase C; format: protein assay, Rattus norvegicus
HT-29 [2] = test: Concentration required for inhibiting the growth of HT-29 cells; 0.1-1.0; format: functional, Homo sapiens
MR4 [3] = test: Concentration required for inhibiting the growth of MR4 cells; 0.1-1.0; format: functional, Mus musculus
HT-29 [4] = test: Concentration required for inhibiting the growth of HT-29 cells; 0.05-0.1; format: functional, Homo sapiens

| I50 (Protein kinase C (PKC)) [mM] | SMILES | I80 (MR4 [1]) [mM] | I80 (HT-29 [2]) [mM] | I80 (MR4 [3]) [mM] | I80 (HT-29 [4]) [mM] |
| --- | --- | --- | --- | --- | --- |
| 0.01 | CCCCCCCC(=O)OCC(COC(C)=O)OC(=O)CCCCCCC (configuration not stated) | 0.05 | – | – | – |
| 0.1 | CCCCCCCC(=O)OCC(COC)OC(=O)CCCCCCC (configuration not stated) | – | 0.1 | 0.1 | – |
| – | CCCCCCCC(=O)OCC(CO)OC(=O)CCCCCCC (configuration not stated) [MONOCTANOIN COMPONENT C] | 0.05 | – | – | 0.05 |
